Data from patent US20150203561A1, “BETA THYMOSIN FRAGMENTS” (REGENERX BIOPHARMACEUTICALS, INC., priority 2008, published 2015).
Entries after “also recorded” stand apart in the source; their conditions may differ.

How the values were obtained:
neuron survival = test: Promotion of neuron survival (summary table); set-up: key: P = active; U = useful; details: summary of peptide uses
human dermal fibroblasts [1] = test: LDH cytotoxicity assay in human dermal fibroblasts exposed to cytotoxic agents; type: cell-based; set-up: key to Protects from cytotoxicity: P = active; U = useful; details: for Protects from cytotoxicity: summary of peptide uses
Procedure: Dose Response Analysis of Peptide 3A • Human dermal fibroblasts (Fb, Cascade Biologics, OR) were cultured to 80% confluence • 2 ml CHX (0.002%) in basal medium ±1 μg/ml Tb4 or 1.0, 0.1, 0.01, or 0.001 μg/ml peptide 3A was added to Fb for 1, 2, 3, or 4 hours • 100 μl culture medium (n=4) was added to 100 μl LDH reagent and incubated at room temperature for 20 minutes • OD500 nm was read and averages ±SEM were calculated • Data was analyzed with probability of p≦0.05

[2] = tested on: human gingival fibroblasts; test: CHX-induced cytotoxicity in human gingival fibroblasts; type: cell-based
[3] = tested on: TNF-a-stimulated IL8 secretion; test: Suppression of inflammation (summary table; IL-8 secretion); type: cell-based, human; set-up: key: P = active; U = useful; details: summary of peptide uses
Procedure: (§1) Analysis of IL-8 Secretion • Human corneal epithelial cells or dermal Fb were cultured to 80% confluence • Cells were pre-treated with 1 μg/ml Tb4 or peptides for one hour • Cells were stimulated with 10 ng/ml TNF-a in the presence or absence of Tb4 or peptides • Culture medium was analyzed for secreted IL-8 by ELISA (n=3, experiments repeated twice) • Data was analyzed using the t-test

human dermal Fb = test: CHX-induced apoptosis (APOPercentage dye) in human dermal Fb; type: cell-based; set-up: key to Inhibits apoptosis: P = active; U = useful; details: for Protection of dermal Fb against CHX-induced apoptosis: 1 μg/ml, 0.002% CHX for 2 hours; for Inhibits apoptosis: summary of peptide uses
Procedure: Effect of Tb4 and Peptide 3A on CHX-induced apoptosis • Human dermal Fb were cultured to 80% confluence • Fb were treated with 0.002% CHX+1 μg/ml Tb4 or peptide 3A, 4A or 6A for 1.5 hours • APOPercentage “dye” was added to the Fb cultures at a 1:50 dilution for an additional 30 minutes • Excess dye was washed from the cells, and digital images were captured. Cells dyed red were apoptotic • Adobe Photoshop was used to calculate the number of red pixels in six digitized images for each treatment • Statistical analysis was done using the t-test

[4] = tested on: tissue damage caused by UV radiation; test: UV radiation tissue damage (summary table); set-up: key: P = active; U = useful; details: summary of peptide uses
[5] = tested on: human gingival fibroblasts; test: CHX-induced apoptosis in human gingival fibroblasts; type: cell-based; details: 0.002% CHX for 2 hours
L1 = test: Stimulation of L1 production (summary table); set-up: key: P = active; U = useful; details: summary of peptide uses
neurite outgrowth = test: Promotion of neurite outgrowth (summary table); set-up: key: P = active; U = useful; details: summary of peptide uses
dermal Fb = test: TNF-a-stimulated IL-8 secretion ELISA, dermal fibroblasts; type: cell-based, human; details: 1 μg/ml, 10 ng/ml TNF-a
Procedure: as §1

T-lymphocyte = test: Impaired T-lymphocyte blastogenic response (summary table); set-up: key: P = active; U = useful; details: summary of peptide uses
IKKb = biological target: T1, IKKb (Homo sapiens, UniProt O14920); test: Cell-free IkBa phosphorylation ELISA (NFkB signaling pathway); type: biochemical; set-up: key to Inhibits IkBa phosphorylation: P = active; U = useful; details: summary of peptide uses
T1 sequence (O14920 1-756): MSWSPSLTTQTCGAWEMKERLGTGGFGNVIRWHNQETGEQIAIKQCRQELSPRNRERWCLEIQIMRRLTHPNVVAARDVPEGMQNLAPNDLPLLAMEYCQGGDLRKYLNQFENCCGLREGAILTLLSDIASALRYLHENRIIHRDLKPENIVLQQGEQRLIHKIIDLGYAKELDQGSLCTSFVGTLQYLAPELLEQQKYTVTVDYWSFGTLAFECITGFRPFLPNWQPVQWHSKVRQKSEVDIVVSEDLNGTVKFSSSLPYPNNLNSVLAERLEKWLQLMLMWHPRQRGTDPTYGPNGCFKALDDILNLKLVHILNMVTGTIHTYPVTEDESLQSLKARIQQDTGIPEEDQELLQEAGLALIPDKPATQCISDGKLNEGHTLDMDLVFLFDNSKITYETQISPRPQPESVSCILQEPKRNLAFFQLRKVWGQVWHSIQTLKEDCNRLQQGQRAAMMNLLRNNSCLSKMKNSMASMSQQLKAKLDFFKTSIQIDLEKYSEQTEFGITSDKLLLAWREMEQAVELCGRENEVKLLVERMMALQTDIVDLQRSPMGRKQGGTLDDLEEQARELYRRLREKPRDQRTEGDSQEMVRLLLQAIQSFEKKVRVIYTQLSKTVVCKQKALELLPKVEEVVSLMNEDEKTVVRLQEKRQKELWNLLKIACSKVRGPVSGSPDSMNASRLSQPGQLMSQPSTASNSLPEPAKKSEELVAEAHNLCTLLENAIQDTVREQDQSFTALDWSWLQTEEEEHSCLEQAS
Procedure: Effect of Tb4 and peptides on the NFkB signaling pathway • Cell-free assay • Prepared 1.0, 0.1, and 0.01 ng/ml solutions of Tb4 or peptides in kinase buffer supplied with kit • Added 10 μl of the solutions to wells of a 96-well plate coated with lkBa • IKKb (20 mU) was added to wells • 90 μl kinase reaction buffer (containing ATP) was added to the wells • ELISA to detect phosphorylated lkBa

human dermal fibroblasts [6] = test: Collagen secretion, colorimetric assay; type: cell-based; set-up: key to Stimulates collagens / Inhibits collagens: P = active; U = useful; details: summary of peptide uses
Procedure: (§2) Effect of Tb4 and peptides on collagen secretion • Human dermal fibroblasts (Fb) were cultured to 80% confluence • Cells were treated with 1 μg/ml Tb4 or peptides for 24, 48, or 72 hours. Cells were treated once/day. • Culture supernatants (n=3, experiments repeated 5 times) were assayed for collagen secretion using a colorimetric assay that detects collagen types I, II, III, IV and V, and possibly VII

human dermal fibroblasts [7] = test: Elastin secretion, colorimetric assay; type: cell-based; set-up: key to Stimulates Elastin: P = active; U = useful; details: for Stimulates Elastin: summary of peptide uses
Procedure: as §2, with “elastin” for “collagen”, “6” for “5”, “• Data was analyzed using the t-test” for “that detects collagen types I, II, III, IV and V, and possibly VII”

[8] = tested on: Human corneal epithelial cells; test: TNF-a-stimulated IL-8 secretion ELISA, corneal epithelial cells; type: cell-based; details: 1 μg/ml, 10 ng/ml TNF-a
Procedure: as §1

[9] = tested on: p65 subunit of NFkB in human corneal epithelial cells; test: NFkB nuclear translocation; type: cell-based; set-up: key: P = active; U = useful; details: summary of peptide uses
Procedure: Analysis of NFkB Nuclear Translocation • Human corneal epithelial cells were cultured to 80% confluence • Cells were pre-treated with 1 μg/ml Tb4 or peptide 4A or 6A for one hour • Cells were stimulated with 10 ng/ml TNF-a in the presence or absence of Tb4 or peptides for 15 minutes • Cells were fixed and labeled with antibodies to the p65 subunit of NFkB

cell migration = test: Stimulation of migration (summary table); type: cell-based; set-up: key: P = active; U = useful; details: summary of peptide uses
[10] = tested on: Transformed human corneal epithelial cells (HCET); test: Collagen type IV secretion ELISA; type: cell-based; set-up: key to Stimulates collagen IV: P = active; U = useful; details: summary of peptide uses
Procedure: Effect of Tb4 and peptides on collagen type IV secretion • Transformed human corneal epithelial cells (HCET) were cultured to 80% confluence • Cells were treated with 1 μg/ml Tb4 or peptides for 24 hours • Culture supernatant samples (n=3 per experiment, total of 4 experiments) were analyzed using a collagen type IV ELISA • Data was analyzed using the t-test

[11] = 1 μg/ml, 0.002% CHX, 1, 2, or 3 hours exposure
[12] = 1 μg/ml, 0.002% CHX, 2 hour exposure

## H-SDKPDMAEIEKFDKS-OH [Peptide 3A]
Neuron survival
  Promotes neuron survival: U
Human dermal fibroblasts [1]; 1.0 μg/ml peptide, 0.002% CHX, 2 hours
  Protection of Fb against the cytotoxic effects of CHX (LDH), dose response analysis: protects
Human dermal fibroblasts [1]; [11]
  Protection of Fb against the cytotoxic effects of CHX (LDH): protect
Human dermal fibroblasts [1]; [12]
  Protection of Fb against the cytotoxic effects of CHX (LDH): protect
Human dermal fibroblasts [1]; 0.002% and 0.005% CHX, 2 hours exposure
  Protection of Fb against the cytotoxic effects of CHX (LDH): protects
Human dermal fibroblasts [1]; 0.01% benzalkonium chloride
  Protection of Fb against the cytotoxic effects of benzalkonium chloride (LDH): protects
Human dermal fibroblasts [1]; 1% hydrogen peroxide
  Protection of Fb against the cytotoxic effects of hydrogen peroxide (LDH): protects
Human dermal fibroblasts [1]; 10% ethanol
  Protection of Fb against the cytotoxic effects of ethanol (LDH): does not protect
Human dermal fibroblasts [1]; cultured human dermal fibroblasts, up to 4 hours exposure
  Inhibition of chlorhexidine digluconate, hydrogen peroxide, and benzalkonium chloride-induced cytotoxicity: can inhibit
Human dermal fibroblasts [1]
  Protects from cytotoxicity: P
[2]; 0.002% CHX
  Protection of gingival Fb against cytotoxicity induced by CHX: protects
[2]; cultured human gingival fibroblasts, Peridex diluted to 0.002% CHX
  Inhibition of chlorhexidine digluconate and Peridex induced cytotoxicity: can inhibit
[3]
  Suppresses inflammation: P
Human dermal Fb
  Protection of dermal Fb against CHX-induced apoptosis: protect; also recorded: can inhibit
  Inhibits apoptosis: P
[4]
  Inhibits tissue damage caused by UV radiation: U
  Protects tissue from UV radiation damage: U
[5]
  Protection of gingival Fb against CHX-induced apoptosis: protect; also recorded: can inhibit
L1
  Stimulates L1 production: U
Neurite outgrowth
  Promotes neurite outgrowth: U
Dermal Fb
  Suppression of TNF-a-stimulated IL8 secretion: suppress

## Ac-Leu-Lys-Lys-Thr-Glu-Thr-Gln-Glu-Lys-Asn-Pro-Leu-Pro-Ser-Lys-Glu-Thr-Ile-Glu-Gln-Glu-Lys-Gln-Ala-Gly-Glu-Ser-OH (Ac-LKKTETQEKNPLPSKETIEQEKQAGES-OH) [Fragment Db]
T-lymphocyte
  Restores impaired T-lymphocyte blastogenic response: U
Neuron survival
  Promotes neuron survival: U
IKKb
  Inhibits IkBa phosphorylation: U
[4]
  Inhibits tissue damage caused by UV radiation: U
  Protects tissue from UV radiation damage: U
Human dermal fibroblasts [6]
  Inhibits collagens: U
L1
  Stimulates L1 production: U
Neurite outgrowth
  Promotes neurite outgrowth: U
Human dermal fibroblasts [7]
  Stimulates Elastin: U

## H-Leu-Lys-Lys-Thr-Glu-Thr-OH (H-LKKTET-OH) [Peptide 1A]
Neuron survival
  Promotes neuron survival: U
[3]
  Suppresses inflammation: P
[4]
  Inhibits tissue damage caused by UV radiation: U
  Protects tissue from UV radiation damage: U
L1
  Stimulates L1 production: U
Neurite outgrowth
  Promotes neurite outgrowth: U
[8]
  Suppression of TNF-a-stimulated IL8 secretion: suppress

## H-SDKPDMAEIEKFDKSKLKKTET-OH [Fragment Aa]
[9]
  Inhibits NFkB translocation: U
Neuron survival
  Promotes neuron survival: U
Human dermal fibroblasts [1]
  Protects from cytotoxicity: U
Cell migration
  Stimulates Migration: U
[10]
  Stimulates collagen IV: U
[3]
  Suppresses inflammation: U
Human dermal Fb
  Inhibits apoptosis: U
[4]
  Inhibits tissue damage caused by UV radiation: U
  Protects tissue from UV radiation damage: U
Human dermal fibroblasts [6]
  Inhibits collagens: U
L1
  Stimulates L1 production: U
Neurite outgrowth
  Promotes neurite outgrowth: U
Human dermal fibroblasts [7]
  Stimulates Elastin: U

## Ac-Ser-Asp-Lys-Pro-OH (Ac-SDKP-OH) [Peptide 2B]
Neuron survival
  Promotes neuron survival: U
Cell migration
  Stimulates Migration: P
[3]
  Suppresses inflammation: P
[4]
  Inhibits tissue damage caused by UV radiation: U
  Protects tissue from UV radiation damage: U
L1
  Stimulates L1 production: U
Neurite outgrowth
  Promotes neurite outgrowth: U
Dermal Fb
  Suppression of TNF-a-stimulated IL8 secretion: suppress

## H-SDKPDMAEIEKFDKSKLKKTETQ-OH [Fragment Ba]
[9]
  Inhibits NFkB translocation: U
Neuron survival
  Promotes neuron survival: U
Human dermal fibroblasts [1]
  Protects from cytotoxicity: U
Cell migration
  Stimulates Migration: U
[10]
  Stimulates collagen IV: U
[3]
  Suppresses inflammation: U
Human dermal Fb
  Inhibits apoptosis: U
[4]
  Inhibits tissue damage caused by UV radiation: U
  Protects tissue from UV radiation damage: U
Human dermal fibroblasts [6]
  Inhibits collagens: U
L1
  Stimulates L1 production: U
Neurite outgrowth
  Promotes neurite outgrowth: U
Human dermal fibroblasts [7]
  Stimulates Elastin: U

## H-Leu-Lys-Lys-Thr-Glu-Thr-Gln-Glu-Lys-Asn-Pro-Leu-Pro-Ser-Lys-Glu-Thr-Ile-Glu-Gln-Glu-Lys-Gln-Ala-Gly-Glu-Ser-OH (H-LKKTETQEKNPLPSKETIEQEKQAGES-OH) [Fragment Da]
T-lymphocyte
  Restores impaired T-lymphocyte blastogenic response: U
Neuron survival
  Promotes neuron survival: U
IKKb
  Inhibits IkBa phosphorylation: U
[4]
  Inhibits tissue damage caused by UV radiation: U
  Protects tissue from UV radiation damage: U
Human dermal fibroblasts [6]
  Inhibits collagens: U
L1
  Stimulates L1 production: U
Neurite outgrowth
  Promotes neurite outgrowth: U
Human dermal fibroblasts [7]
  Stimulates Elastin: U

## Thymosin β4 [Tb4, reference compound]
T-lymphocyte
  Restores impaired T-lymphocyte blastogenic response: P
[9]
  Inhibits NFkB translocation: P
Neuron survival
  Promotes neuron survival: P
Human dermal fibroblasts [1]; [11]
  Protection of Fb against the cytotoxic effects of CHX (LDH): protect
Human dermal fibroblasts [1]; [12]
  Protection of Fb against the cytotoxic effects of CHX (LDH): protect
Human dermal fibroblasts [1]
  Protects from cytotoxicity: P
Cell migration
  Stimulates Migration: P
[3]
  Suppresses inflammation: P
Human dermal Fb
  Protection of dermal Fb against CHX-induced apoptosis: protect
  Inhibits apoptosis: P
[4]
  Inhibits tissue damage caused by UV radiation: P
  Protects tissue from UV radiation damage: P
[5]
  Protection of gingival Fb against CHX-induced apoptosis: protect
L1
  Stimulates L1 production: P
Neurite outgrowth
  Promotes neurite outgrowth: P
Human dermal fibroblasts [7]; dermal Fb, 1 μg/ml once/day, 24, 48, or 72 hours
  Secretion of elastin: stimulate
Human dermal fibroblasts [7]
  Stimulates Elastin: P
Dermal Fb
  Suppression of TNF-a-stimulated IL8 secretion: suppress
[8]
  Suppression of TNF-a-stimulated IL8 secretion: suppress
